The source of these data is patent publication US6512002B2, “Methods of treatment for premature ejaculation in a male” (Pfizer Inc., priority 2000, dated 2003).

Series [1] deals with total serum testosterone. Description: Testosterone elevation: total serum testosterone in a random, double-blind, parallel group, placebo-controlled study. The class given is in vivo, men. How it is done:
In a random, double-blind, parallel group, placebo-controlled study, 3-{1-[4-(2-dimethylamino-ethoxy)-phenyl]-2-phenyl-but-enyl}-phenol was administered to men, aged 72 to 84 with below average serum testosterone levels. Subjects received either placebo or 3-{1-[4-(2-dimethylamino-ethoxy)-phenyl]-2-phenyl-but-enyl}-phenol as a sequential escalating dose, with subjects receiving 20 mg daily for the first month, 40 mg daily for the second month, and 60 mg daily for the final four months (remainder) of the study. Total serum testosterone was determined in the subjects at 4 weeks and at 2, 3 and 6 months.

Turning to `CCC(=C(c1ccc(OCCN(C)C)cc1)c1cccc(O)c1)c1ccccc1` [Treatment Compound, 3-{1-[4-(2-dimethylamino-ethoxy)-phenyl]-2-phenyl-but-enyl}-phenol], the “Mean Percent Change From Baseline in Testosterone” value in series [1] (2 Months, men aged 72 to 84, escalating dose, 40 mg daily for the second month) was 44.45%; in series [1] (3 Months, men aged 72 to 84, escalating dose, 60 mg daily for the final four months) it was 41.47%; in series [1] (6 Months, men aged 72 to 84, escalating dose, 60 mg daily for the final four months), 45.19%; in series [1] (Week 4, men aged 72 to 84 with below average serum testosterone, 20 mg daily for the first month), 36.20%. In addition, in series [1] (men aged 72 to 84, 20/40/60 mg daily escalating dose over 6 months, p=0.026), the “total serum testosterone versus subjects receiving placebo during the study” value is on record as “significant increase”.

Regarding `CCCOc1ncc(C(C)=O)cc1-c1nc2c(CC)n(C3CN(C(C)C)C3)nc2c(=O)[nH]1`, the melting point lay in the range of 162.8 to 163.6 °C.

For orientation: melting point means the temperature of the solid-liquid transition.
